The values below come from US12503438B2, “Compounds for the treatment of kinase-dependent disorders” (Exelixis, Inc., priority 2019, dated 2025).

The structures appear in SMILES notation. Where only a bound is given, the exact number is not on record here.

The target of the experiment is KDR (Homo sapiens, UniProt P35968). The experiment in a line: KDR autophosphorylation ELISA in HUVEC cells. The experiment is classed as cell-based. On the set-up: endogenous in cells; host or cells: HUVEC (Lonza #C2519A). To be noted: cellular activity, VEGF165-stimulated, phospho-KDR ELISA. The procedure, abridged: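 Compound pretreatment (1 h, 0.3% DMSO) of serum-starved HUVEC preceded a 5 min pulse of 100 ng/mL VEGF165, after which cells were lysed. Phospho-KDR was quantified by ELISA relative to stimulated and unstimulated controls.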
KDR, sequence (P35968 20-1356): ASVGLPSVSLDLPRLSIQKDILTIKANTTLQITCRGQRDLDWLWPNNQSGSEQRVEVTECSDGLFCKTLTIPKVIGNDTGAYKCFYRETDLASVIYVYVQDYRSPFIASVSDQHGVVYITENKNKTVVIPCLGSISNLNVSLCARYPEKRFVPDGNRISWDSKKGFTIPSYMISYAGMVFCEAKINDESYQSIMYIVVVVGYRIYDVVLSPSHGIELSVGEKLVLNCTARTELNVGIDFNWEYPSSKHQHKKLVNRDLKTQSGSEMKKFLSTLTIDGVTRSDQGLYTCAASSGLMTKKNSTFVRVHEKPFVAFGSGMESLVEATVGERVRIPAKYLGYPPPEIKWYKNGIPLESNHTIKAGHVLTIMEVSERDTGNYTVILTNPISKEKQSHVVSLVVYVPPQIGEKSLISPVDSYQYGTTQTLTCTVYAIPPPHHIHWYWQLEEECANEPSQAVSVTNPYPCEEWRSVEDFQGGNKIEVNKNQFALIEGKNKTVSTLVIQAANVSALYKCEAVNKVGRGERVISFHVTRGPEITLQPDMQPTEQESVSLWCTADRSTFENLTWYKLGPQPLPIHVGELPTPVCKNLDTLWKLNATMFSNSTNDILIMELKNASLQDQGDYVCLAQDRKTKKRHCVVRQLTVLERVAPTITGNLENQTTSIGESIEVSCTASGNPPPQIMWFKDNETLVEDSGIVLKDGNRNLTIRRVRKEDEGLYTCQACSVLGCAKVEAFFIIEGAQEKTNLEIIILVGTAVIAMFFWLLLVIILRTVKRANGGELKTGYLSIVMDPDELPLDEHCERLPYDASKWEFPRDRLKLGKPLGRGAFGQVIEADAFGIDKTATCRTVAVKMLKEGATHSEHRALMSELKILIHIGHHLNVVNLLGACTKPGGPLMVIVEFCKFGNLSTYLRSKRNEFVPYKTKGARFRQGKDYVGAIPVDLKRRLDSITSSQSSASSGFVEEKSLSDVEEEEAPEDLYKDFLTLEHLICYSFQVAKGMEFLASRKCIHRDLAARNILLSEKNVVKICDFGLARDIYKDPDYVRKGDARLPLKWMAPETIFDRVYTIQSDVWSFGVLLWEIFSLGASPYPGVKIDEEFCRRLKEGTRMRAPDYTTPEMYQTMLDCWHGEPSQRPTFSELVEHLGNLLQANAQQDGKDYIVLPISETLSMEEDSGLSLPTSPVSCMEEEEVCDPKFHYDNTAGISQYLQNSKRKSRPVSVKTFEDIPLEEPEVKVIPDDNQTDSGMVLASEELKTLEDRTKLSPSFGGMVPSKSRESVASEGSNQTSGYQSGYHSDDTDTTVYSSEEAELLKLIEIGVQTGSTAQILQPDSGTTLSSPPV
`Cn1nccc1-c1ccc2c(Oc3ccc(NC(=O)C4(C(=O)Nc5ccc(F)cc5)CC4)cc3)ccnc2c1` [Compound 54, 1-N′-(4-Fluorophenyl)-1-N-[4-[7-(2-methylpyrazol-3-yl)quinolin-4-yl]oxyphenyl]cyclopropane-1,1-dicarboxamide]: the 50% inhibitory concentration (IC50) (as a rule, the point on the concentration scale where inhibition reaches its midpoint) was 10 to 100 nM.

The compound `Cc1cc2c(Oc3ccc(NC(=O)C4(C(=O)Nc5ccc(F)cc5)CC4)cc3F)ccnc2cc1-c1ncc[nH]1` [Compound 122, 1-N′-[3-Fluoro-4-[7-(1H-imidazol-2-yl)-6-methylquinolin-4-yl]oxyphenyl]-1-N-(4-fluorophenyl)cyclopropane-1,1-dicarboxamide] showed an IC50 of 10 to 100 nM. In turn, `O=C(Nc1ccc(F)cc1)C1(C(=O)Nc2ccc(Oc3ccnc4cc(-c5ccc(O)nc5)ccc34)cc2)CC1` [Compound 51, 1-N′-(4-Fluorophenyl)-1-N-[4-[7-(6-hydroxypyridin-3-yl)quinolin-4-yl]oxyphenyl]cyclopropane-1,1-dicarboxamide] showed an IC50 of at most 10 nM. Compound `O=C(Nc1ccc(F)cc1)C1(C(=O)Nc2ccc(Oc3ccnc4cc(-c5ccnc(F)c5)ccc34)cc2)CC1` [Compound 33, 1-N′-(4-Fluorophenyl)-1-N-[4-[7-(2-fluoropyridin-4-yl)quinolin-4-yl]oxyphenyl]cyclopropane-1,1-dicarboxamide] displayed a half-inhibitory concentration (IC50) of 10 to 100 nM. Regarding `Cn1cc(-c2ccc3c(Oc4ccc(NC(=O)C5(C(=O)Nc6ccc(F)cc6)CC5)cc4)ccnc3c2)ccc1=O` [Compound 119, 1-N′-(4-Fluorophenyl)-1-N-[4-[7-(1-methyl-6-oxopyridin-3-yl)quinolin-4-yl]oxyphenyl]cyclopropane-1,1-dicarboxamide], the concentration for half-maximal inhibition (IC50) was at most 10 nM. With `N#Cc1cc(-c2ccc3c(Oc4ccc(NC(=O)C5(C(=O)Nc6ccc(F)cc6)CC5)cc4)ccnc3c2)ccn1` [Compound 34, 1-N-[4-[7-(2-Cyanopyridin-4-yl)quinolin-4-yl]oxyphenyl]-1-N′-(4-fluorophenyl)cyclopropane-1,1-dicarboxamide], the concentration for half-maximal inhibition (IC50) was 10 to 100 nM. Compound `O=C(Nc1ccc(F)cc1)C1(C(=O)Nc2ccc(Oc3ccnc4cc(C5CCNC5)ccc34)cc2)CC1` (centres unmarked) [Compound 83, 1-N′-(4-Fluorophenyl)-1-N-[4-(7-pyrrolidin-3-ylquinolin-4-yl)oxyphenyl]cyclopropane-1,1-dicarboxamide] returned an IC50 of 100 to 300 nM.

Compound `CC(C)(C)n1cc(-c2ccc3c(Oc4ccc(NC(=O)C5(C(=O)Nc6ccc(F)cc6)CC5)cc4)ccnc3c2)cn1` [Compound 23, 1-N-[4-[7-(1-tert-Butylpyrazol-4-yl)quinolin-4-yl]oxyphenyl]-1-N′-(4-fluorophenyl)cyclopropane-1,1-dicarboxamide] displayed an IC50 of 10 to 100 nM. In the case of `O=C(Nc1ccc(F)cc1)C1(C(=O)Nc2ccc(Oc3ccnc4cc(-c5nnco5)ccc34)cc2)CC1` [Compound 73, 1-N′-(4-Fluorophenyl)-1-N-[4-[7-(1,3,4-oxadiazol-2-yl)quinolin-4-yl]oxyphenyl]cyclopropane-1,1-dicarboxamide], the IC50 lay in the range of 10 to 100 nM. In turn, `O=C(Nc1ccc(F)cc1)C1(C(=O)Nc2ccc(Oc3ccnc4cc(-c5ncc[nH]5)ccc34)cc2)CC1` [Compound 74, 1-N′-(4-Fluorophenyl)-1-N-[4-[7-(1H-imidazol-2-yl)quinolin-4-yl]oxyphenyl]cyclopropane-1,1-dicarboxamide] showed a half-maximal inhibitory concentration (IC50) of at most 10 nM.

In turn, `Cn1ccc(-c2ccc3c(Oc4ccc(NC(=O)C5(C(=O)Nc6ccc(F)cc6)CC5)cc4)ccnc3c2)n1` [Compound 17, 1-N′-(4-Fluorophenyl)-1-N-[4-[7-(1-methylpyrazol-3-yl)quinolin-4-yl]oxyphenyl]cyclopropane-1,1-dicarboxamide] had an IC50 of at most 10 nM. As for `O=C(Nc1ccc(F)cc1)C1(C(=O)Nc2ccc(Oc3ccnc4cc(-c5cnn[nH]5)ccc34)cc2)CC1` [Compound 65, 1-N′-(4-Fluorophenyl)-1-N-[4-[7-(1H-triazol-5-yl)quinolin-4-yl]oxyphenyl]cyclopropane-1,1-dicarboxamide], the IC50 was above 300 nM.

In turn, `O=C(Nc1ccc(F)cc1)C1(C(=O)Nc2ccc(Oc3ccnc4cc(-c5cnc6[nH]ncc6c5)ccc34)cc2)CC1` [Compound 39, 1-N′-(4-Fluorophenyl)-1-N-[4-[7-(1H-pyrazolo[3,4-b]pyridin-5-yl)quinolin-4-yl]oxyphenyl]cyclopropane-1,1-dicarboxamide] had an IC50 of 10 to 100 nM. For `Cc1cc2c(Oc3cc(F)c(NC(=O)C4(C(=O)Nc5ccc(F)cc5)CC4)cc3F)ccnc2cc1-c1ncc[nH]1` [Compound 121, 1-N′-[2,5-Difluoro-4-[7-(1H-imidazol-2-yl)-6-methylquinolin-4-yl]oxyphenyl]-1-N-(4-fluorophenyl)cyclopropane-1,1-dicarboxamide], the 50% inhibitory concentration (IC50) lay in the range of 10 to 100 nM.

Turning to `O=C(Nc1ccc(F)cc1)C1(C(=O)Nc2ccc(Oc3ccnc4cc(-c5cncc(F)c5)ccc34)cc2)CC1` [Compound 45, 1-N′-(4-Fluorophenyl)-1-N-[4-[7-(5-fluoropyridin-3-yl)quinolin-4-yl]oxyphenyl]cyclopropane-1,1-dicarboxamide], the 50% inhibitory concentration (IC50) lay within 100 to 300 nM.

`CN(C(=O)C1(C(=O)Nc2ccc(Oc3ccnc4cc(-c5cnn(C)c5)ccc34)cc2)CC1)c1ccc(F)cc1` [Compound 82A, 1-N′-(4-Fluorophenyl)-1-N′-methyl-1-N-[4-[7-(1-methylpyrazol-4-yl)quinolin-4-yl]oxyphenyl]cyclopropane-1,1-dicarboxamide]: the half-maximal inhibitory concentration (IC50) is above 300 nM.

The compound `Cc1noc(C)c1-c1ccc2c(Oc3ccc(NC(=O)C4(C(=O)Nc5ccc(F)cc5)CC4)cc3)ccnc2c1` [Compound 53, 1-N-[4-[7-(3,5-Dimethyl-1,2-oxazol-4-yl)quinolin-4-yl]oxyphenyl]-1-N′-(4-fluorophenyl)cyclopropane-1,1-dicarboxamide] gave a 50% inhibitory concentration (IC50) of 100 to 300 nM. Regarding `O=C(Nc1ccc(F)cc1)C1(C(=O)Nc2ccc(Oc3ccnc4cc(-c5cnn(CC(F)(F)F)c5)ccc34)cc2)CC1` [Compound 16, 1-N′-(4-Fluorophenyl)-1-N-[4-[7-[1-(2,2,2-trifluoroethyl)pyrazol-4-yl]quinolin-4-yl]oxyphenyl]cyclopropane-1,1-dicarboxamide], the IC50 is at most 10 nM. Take `Cc1cc2c(Oc3ccc(NC(=O)C4(C(=O)Nc5ccc(F)cc5)CC4)cc3)ccnc2cc1-c1cnn(C)c1` [Compound 78, 1-N′-(4-Fluorophenyl)-1-N-[4-[6-methyl-7-(1-methylpyrazol-4-yl)quinolin-4-yl]oxyphenyl]cyclopropane-1,1-dicarboxamide]: the IC50 is 10 to 100 nM. The value for `C[Si](C)(C)C#Cc1ccc2c(Oc3ccc(NC(=O)C4(C(=O)Nc5ccc(F)cc5)CC4)cc3)ccnc2c1` [Compound 63, 1-N′-(4-Fluorophenyl)-1-N-[4-[7-(2-trimethylsilylethynyl)quinolin-4-yl]oxyphenyl]cyclopropane-1,1-dicarboxamide] was above 300 nM. For `O=C(Nc1ccc(F)cc1)C1(C(=O)Nc2ccc(Oc3ccnc4cc(-c5cnn(CCO)c5)ccc34)cc2)CC1` [Compound 18, 1-N′-(4-Fluorophenyl)-1-N-[4-[7-[1-(2-hydroxyethyl)pyrazol-4-yl]quinolin-4-yl]oxyphenyl]cyclopropane-1,1-dicarboxamide] the value was at most 10 nM; for `CN1CCN(c2cc(-c3ccc4c(Oc5ccc(NC(=O)C6(C(=O)Nc7ccc(F)cc7)CC6)cc5)ccnc4c3)ccn2)CC1` [Compound 111, 1-N′-(4-Fluorophenyl)-1-N-[4-[7-[2-(4-methylpiperazin-1-yl)pyridin-4-yl]quinolin-4-yl]oxyphenyl]cyclopropane-1,1-dicarboxamide], 10 to 100 nM. With `COCCn1cc(-c2ccc3c(Oc4ccc(NC(=O)C5(C(=O)Nc6ccc(F)cc6)CC5)cc4)ccnc3c2)cn1` [Compound 10, 1-N′-(4-Fluorophenyl)-1-N-[4-[7-[1-(2-methoxyethyl)pyrazol-4-yl]quinolin-4-yl]oxyphenyl]cyclopropane-1,1-dicarboxamide], the IC50 is 10 to 100 nM. Compound `Cc1cc(-c2ccc3c(Oc4ccc(NC(=O)C5(C(=O)Nc6ccc(F)cc6)CC5)cc4)ccnc3c2)ccn1` [Compound 30, 1-N′-(4-Fluorophenyl)-1-N-[4-[7-(2-methylpyridin-4-yl)quinolin-4-yl]oxyphenyl]cyclopropane-1,1-dicarboxamide] showed an IC50 of 10 to 100 nM.

In the case of `O=C(Nc1ccc(F)cc1)C1(C(=O)Nc2ccc(Oc3ccnc4cc(-c5cnn6c5CCC6)ccc34)cc2)CC1` [Compound 29, 1-N-[4-[7-(5,6-Dihydro-4H-pyrrolo[1,2-b]pyrazol-3-yl)quinolin-4-yl]oxyphenyl]-1-N′-(4-fluorophenyl)cyclopropane-1,1-dicarboxamide], the half-inhibitory concentration (IC50) lay in the range of 10 to 100 nM. `O=C(Nc1ccc(F)cc1)C1(C(=O)Nc2ccc(Oc3ccnc4cc(-c5ccc(F)nc5)ccc34)cc2)CC1` [Compound 41, 1-N′-(4-Fluorophenyl)-1-N-[4-[7-(6-fluoropyridin-3-yl)quinolin-4-yl]oxyphenyl]cyclopropane-1,1-dicarboxamide] showed an IC50 of 10 to 100 nM. `O=C(Nc1ccc(F)cc1)C1(C(=O)Nc2ccc(Oc3ccnc4cc(-c5cnn(CC(F)F)c5)ccc34)cc2)CC1` [Compound 15, 1-N-[4-[7-[1-(2,2-Difluoroethyl)pyrazol-4-yl]quinolin-4-yl]oxyphenyl]-1-N′-(4-fluorophenyl)cyclopropane-1,1-dicarboxamide] yielded an IC50 of 10 to 100 nM. In turn, `CC(C)n1cc(-c2ccc3c(Oc4ccc(NC(=O)C5(C(=O)Nc6ccc(F)cc6)CC5)cc4)ccnc3c2)cn1` [Compound 21, 1-N′-(4-Fluorophenyl)-1-N-[4-[7-(1-propan-2-ylpyrazol-4-yl)quinolin-4-yl]oxyphenyl]cyclopropane-1,1-dicarboxamide] displayed a half-maximal inhibitory concentration (IC50) of at most 10 nM. Turning to `O=C(Nc1ccc(F)cc1)C1(C(=O)Nc2ccc(Oc3ccnc4cc(-c5cccnc5O)ccc34)cc2)CC1` [Compound 52, 1-N′-(4-Fluorophenyl)-1-N-[4-[7-(2-hydroxypyridin-3-yl)quinolin-4-yl]oxyphenyl]cyclopropane-1,1-dicarboxamide], the 50% inhibitory concentration (IC50) lay within 10 to 100 nM.
